Measurements: PubChem BioAssay (NCI)
Where “and” joins values, the source holds several entries; their conditions need not be identical. Equal entries are not always repeated.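 Each compound was tested at five concentrations against cells in 96-well plates for 48 hours. Here, GI50 denotes the concentration required for 50% inhibition of growth. TGI marks complete inhibition of growth.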

Experiments:
Experiment in all cases: growth of human tumour cells (NCI), 48 h
[1] = tested on: HS 578T breast
[2] = tested on: RPMI-8226 leukemia
[3] = tested on: UACC-62 melanoma
[4] = tested on: ACHN renal
[5] = tested on: M14 melanoma
[6] = tested on: HOP-92 NSCLC
[7] = tested on: SN12C renal
[8] = tested on: CAKI-1 renal
[9] = tested on: NCI-H522 lung
[10] = tested on: SK-OV-3 ovarian

Row | SMILES | TGI [1] [µM] | TGI [2] [µM] | TGI [3] [µM] | TGI [4] [µM] | TGI [5] [µM] | TGI [6] [µM] | TGI [7] | TGI [8] [µM] | TGI [9] | TGI [10] [µM] | GI50 [2] | GI50 [3] [µM] | GI50 [8] [µM] | GI50 [6] [µM] | GI50 [9] | GI50 [10] [µM] | GI50 [7] [µM] | GI50 [1] [µM] | GI50 [4] [µM] | GI50 [5] [µM]
1 | CCOC(=O)CCC(NC(=O)OCc1ccccc1)C(=O)NC(CCC(=O)OCC)C(=O)NC(CCC(=O)OCC)C(=O)NNC(=O)OC(C)(C)C (centres undefined) | > 100 | > 100 | > 100 | > 100 | > 100 | > 100 | > 100 µM |  |  |  |  |  |  |  |  |  |  |  |  | 
2 | Cc1nc2c(n1-c1ccccc1)C(=O)c1ccccc1C2=O |  |  | > 100 | > 100 | > 100 |  | > 100 µM | > 100 | 71.8 µM | > 100 |  |  |  |  |  |  |  |  |  | 
3 | CC(C#N)N(CCc1ccccc1)C(=O)c1ccccc1 (centres undefined) | > 100 | > 100 | > 100 | > 100 | > 100 |  | > 100 µM | > 100 | > 100 µM | > 100 |  |  |  |  |  |  |  |  |  | 
4 | CS(=O)(=O)[O-].CS(=O)(=O)[O-].NC1CCCCC1N.[Pt+4] (centres undefined) |  | > 100 | > 100 |  |  | > 100 | > 100 µM | > 100 | > 100 µM | > 100 | 17.7 µM | > 100 | 41.8 | > 100 | > 71.1 µM | > 100 | > 84.7 |  |  | 
5 | O=NN1CCCS1(=O)=O | > 100 | > 100 | > 100 | > 100 | > 100 |  | > 100 µM | > 100 |  | > 100 |  |  |  |  |  |  |  |  |  | 
6 | Cc1c(C#N)c(=N)oc2ccccc12 | > 100 | > 100 | > 100 | > 100 | > 100 | > 100 | > 100 µM | > 100 |  | > 100 |  |  |  |  |  |  |  |  |  | 
7 | O=c1nc2ccc3sc4ccccc4c(=O)c3n2c(=O)[nH]1 | > 100 | > 100 |  | > 100 |  |  | > 100 µM | > 100 | > 100 µM |  |  |  |  |  |  |  |  |  |  | 
8 | NC(=S)NNC(=S)NC(=O)c1ccco1 | > 10 | > 10 | > 10 | > 10 | > 10 | > 10 | > 10 µM | > 10 |  | > 10 |  |  |  |  |  |  |  |  |  | 
9 | COc1cc2oc(=O)cc(C)c2cc1OC | > 100 | > 100 | > 100 | > 100 | > 100 |  | > 100 µM |  |  | > 100 |  |  |  |  |  |  |  |  |  | 
10 | CCC1(OC(=O)CN)C(=O)OCc2c1cc1n(c2=O)Cc2cc3cc4c(cc3nc2-1)OCO4 (centres undefined) |  |  | < 0.01 |  |  |  | 21.8 µM and > 100 µM | 0.171 | 1.43 µM and 0.243 µM | 0.174 | 0.0253 µM and 0.0231 µM | < 0.01 | < 0.01 |  | 0.0531 µM and < 0.01 µM | < 0.01 | < 0.01 |  |  | 
11 | COC(=O)[C@@]1(C)CCC[C@]2(C(=O)O)C3Cc4occc4[C@H](C)[C@@H]3CCC21 (some centres undefined) | > 100 |  | > 100 | > 100 | > 100 | 81 | > 100 µM |  |  | > 100 |  |  |  |  |  |  |  |  |  | 
12 | Cn1c(=O)n(CC2CS2)c2ccccc21 (centres undefined) |  | > 100 | > 100 | > 100 | > 100 | > 100 | > 100 µM | > 100 | > 100 µM | > 100 |  |  |  |  |  |  |  |  |  | 
13 | N#C/C(=C1/c2cc([N+](=O)[O-])ccc2-c2c1cc([N+](=O)[O-])cc2[N+](=O)[O-])N1CCCCC1 | > 100 | > 100 | > 100 | > 100 | > 100 |  | > 100 µM | > 100 | > 100 µM | > 100 |  |  |  |  |  |  |  |  |  | 
14 | C[PH+](c1nc2ccccc2nc1[PH+](C)C(C)(C)C)C(C)(C)C.C[PH+](c1nc2ccccc2nc1[PH+](C)C(C)(C)C)C(C)(C)C.[Au+].[Cl-] (centres undefined) | 1.75 | 0.245 | 0.165 | 0.835 | 0.31 | 0.0681 |  | 0.537 |  | 0.117 | 0.0357 µM | 0.0371 | 0.222 | 0.0225 |  | 0.0293 |  | 0.0447 | 0.113 | 0.0386
15 | COC(=O)c1cc(C)ccc1C1CN=NC12Cc1c(C)cc(C)cc1C2=O (centres undefined) | 55.8 |  | 49.6 | > 100 | 41.9 | 40.9 | > 100 µM | > 100 | 34.5 µM | 69 |  |  |  |  |  |  |  |  |  | 
16 | O=C(O)Cc1ccccc1CCc1ccccc1Cl |  | > 100 |  |  | > 100 | > 100 | > 100 µM | > 100 | > 100 µM | > 100 |  |  |  |  |  |  |  |  |  | 
17 | O=P(O)(O)C=C=C1CCCCC1 | > 100 |  | > 100 | > 100 | > 100 | > 100 | > 100 µM | > 100 | > 100 µM | > 100 |  |  |  |  |  |  |  |  |  | 
18 | CC1(C)[C@@H](OC(N)=O)C=C[C@]2(CO)[C@H]3CC[C@]4(C)[C@@H](c5ccc(=O)oc5)[C@@H](Cl)C[C@]4(O)C3=CC[C@@H]12 | 0.00837 | 0.0956 | 0.013 | 0.00262 | 0.0297 | 0.0513 | 0.0157 µM |  | 0.00305 µM | 0.0306 | 0.00917 µM | 0.00358 |  | 0.00862 | < 0.0001 µM | 0.00474 | < 0.0001 | < 0.0001 | < 0.0001 | 0.0131
19 | CCOC(=O)c1c(N)sc2c1C(C(=O)OCC)CCC2 (centres undefined) | > 100 | > 100 | > 100 | > 100 | > 100 | > 100 | > 100 µM |  |  |  |  |  |  |  |  |  |  |  |  | 
20 | N#Cc1c(N2CCN(c3ccc([N+](=O)[O-])cc3)CC2)[n+](=O)c2ccc(-c3ccc([N+](=O)[O-])cc3)cc2n1[O-] | > 100 | > 75 | > 100 | > 100 | > 58.9 | > 83.9 |  | > 100 | > 100 µM | > 100 |  |  |  |  |  |  |  |  |  | 
21 | NC1c2c(Cl)sc(Cl)c2C(=O)C1O (centres undefined) | > 100 |  | 43.7 | 99.6 | > 100 | 84.3 | 29.2 µM | 47.4 | 41.6 µM | > 100 |  |  |  |  |  |  |  |  |  | 
22 | COc1cccc(NC(=O)CC(=O)N2N=C(C)C(N=Nc3ccc(C(=O)O)cc3)C2=O)c1 (centres undefined) | > 100 | > 100 | > 100 | > 100 | > 100 |  | > 100 µM | > 100 | > 100 µM |  |  |  |  |  |  |  |  |  |  | 
